Experimental data as given in US20090143361A1, “Pyrido[3,2-E]Pyrazines, Process For Preparing The Same, And Their Use As Inhibitors Of Phosphodiesterase 10” (ELBION GMBH, priority 2007, published 2009).

Target: T1, human recombinant PDE10A (Homo sapiens, UniProt Q9Y233)
T1 construct: made in house; host or cells: SF21 insect cells (baculovirus)
Test: Inhibition of PDE10, human recombinant PDE10A ([3H]-cAMP SPA)
Assay type: biochemical
Conditions: Table 7; read-out: Human PDE10 (IC50 nM)
Protocol: The gene was than inserted into a baculovirus vector, ligated with the baculovirus DNA. The enzyme-protein was expressed in SF21-cells. The enzyme was isolated from these cells by harvesting the cells by a centrifugation at 200 g to collect the cells. The cells were resuspended in 50 mM Tris-HCl/5 mM MgCl2 buffer (pH=7.4) and lysed by a sonication of the cells. The cytosolic PDE10A was obtained by a centrifugation at 48000 g for 1 h in the supernatant and stored at −70° C. PDE10 activity was determined in a one step procedure in microtiterplates. […] Nonspecific activity was tested without the enzyme. The reaction was initiated by addition of the substrate solution and was carried out at 37° C. for 30 minutes. Enzymatic activity was stopped by addition of 25 μl YSi-SPA-beads (Amersham-Pharmacia). One hour later the mixture was measured in a liquid scintillation counter for microtiterplates (Microbeta Trilux). To pipette the incubation mixture a robot Biomek (Fa. Beckman) is used. […] For determination of IC50 values the Hill-plot, 2-parameter-model, was used.

T1 sequence (Q9Y233 1-779 isoform Q9Y233-1): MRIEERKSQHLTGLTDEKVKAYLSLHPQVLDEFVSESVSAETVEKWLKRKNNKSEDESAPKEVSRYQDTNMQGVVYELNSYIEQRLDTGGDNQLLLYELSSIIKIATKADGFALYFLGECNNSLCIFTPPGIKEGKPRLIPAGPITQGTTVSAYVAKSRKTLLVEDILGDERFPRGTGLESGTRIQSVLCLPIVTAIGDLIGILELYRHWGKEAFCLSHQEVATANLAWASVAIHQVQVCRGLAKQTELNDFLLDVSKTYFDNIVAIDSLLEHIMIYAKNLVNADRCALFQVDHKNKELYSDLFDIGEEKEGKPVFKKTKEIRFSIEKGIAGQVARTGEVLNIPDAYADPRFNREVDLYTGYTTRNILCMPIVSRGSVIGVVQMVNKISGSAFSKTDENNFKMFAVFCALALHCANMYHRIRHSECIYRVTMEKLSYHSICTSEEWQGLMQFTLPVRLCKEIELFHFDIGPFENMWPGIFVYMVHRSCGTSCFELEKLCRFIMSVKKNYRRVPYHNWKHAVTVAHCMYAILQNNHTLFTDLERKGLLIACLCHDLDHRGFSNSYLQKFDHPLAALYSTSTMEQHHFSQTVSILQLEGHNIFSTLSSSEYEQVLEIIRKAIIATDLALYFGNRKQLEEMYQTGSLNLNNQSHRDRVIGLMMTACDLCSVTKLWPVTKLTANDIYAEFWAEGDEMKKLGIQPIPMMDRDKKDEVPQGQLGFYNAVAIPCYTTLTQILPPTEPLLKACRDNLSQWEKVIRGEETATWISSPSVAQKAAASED

| Compound | IC50 |
| --- | --- |
| COc1ccc2nc(C)c3c(C)nc(-c4cnc(F)c(C)c4)n3c2n1 [Example 33, 9-(6-Fluoro-5-methylpyridin-3-yl)-2-methoxy-6,7-dimethylimidazo[1,5-a]pyrido[3,2-e]pyrazine] | 10 to 100 nM |

Same assay, conditions: Table 9; read-out: hPDE10 IC50

| Compound | IC50 |
| --- | --- |
| Cc1nc(F)ccc1-c1nc(C)c2c(C)nc3ccc(OCC4CC4)nc3n12 [Example 141, 2-(cyclopropylmethoxy)-9-(6-fluoro-2-methylpyridin-3-yl)-6,7-dimethylimidazo[1,5-a]pyrido[3,2-e]pyrazine] | < 10 nM |
| Cc1ccccc1-c1nc(C)c2c(C)nc3ccc(OCc4ccncc4)nc3n12 [Example 158, 6,7-dimethyl-9-(2-methylphenyl)-2-(pyridin-4-ylmethoxy)imidazo[1,5-a]pyrido[3,2-e]pyrazine] | < 10 nM |
| COc1ccc2nc(C)c3c(C)nc(-c4cc[nH]c4)n3c2n1 [Example 181, 2-methoxy-6,7-dimethyl-9-(1H-pyrrol-3-yl)imidazo[1,5-a]pyrido[3,2-e]pyrazine] | 10 to 100 nM |
| COc1ccc2nc(C#N)c3c(C)nc(-c4ccc(F)c(C(N)=O)c4)n3c2n1 [Example 168, 5-(6-cyano-2-methoxy-7-methylimidazo[1,5-a]pyrido[3,2-e]pyrazin-9-yl)-2-fluorobenzamide] | < 10 nM |
| Cc1nc(-c2cc(C(N)=O)ccc2F)n2c1c(C)nc1ccc(OCC3CC3)nc12 [Example 151, 3-[2-(cyclopropylmethoxy)-6,7-dimethylimidazo[1,5-a]pyrido[3,2-e]pyrazin-9-yl]-4-fluorobenzamide] | < 10 nM |
| Cc1cc(F)ccc1-c1nc(C)c2c(C)nc3ccc(OCC4CC4)nc3n12 [Example 135, 2-(cyclopropylmethoxy)-9-(4-fluoro-2-methylphenyl)-6,7-dimethylimidazo[1,5-a]pyrido[3,2-e]pyrazine] | 10 to 100 nM |
| COc1ccc2nc(C)c3c(C)nc(-c4cccc(N5CCOCC5)c4)n3c2n1 [Example 188, 2-methoxy-6,7-dimethyl-9-(3-morpholin-4-ylphenyl)imidazo[1,5-a]pyrido[3,2-e]pyrazine] | > 100 nM |
| COc1ccc2nc(C#N)c3c(C)nc(-c4cccc(C(N)=O)c4)n3c2n1 [Example 167, 3-(6-cyano-2-methoxy-7-methylimidazo[1,5-a]pyrido[3,2-e]pyrazin-9-yl)benzamide] | 10 to 100 nM |
| COc1ccc2nc(C)c3c(C)nc(-c4ccncc4OC)n3c2n1 [Example 161, 2-Methoxy-9-(3-methoxypyridin-4-yl)-6,7-dimethylimidazo[1,5-a]pyrido[3,2-e]pyrazine] | 10 to 100 nM |
| COc1ccc2nc(C)c3c(C)nc(-c4cc(F)cc(C(N)=O)c4)n3c2n1 [Example 129, 3-fluoro-5-(2-methoxy-6,7-dimethylimidazo[1,5-a]pyrido[3,2-e]pyrazin-9-yl)benzamide] | < 10 nM |
| COc1ccc(-c2nc(C)c3c(C)nc4ccc(OCC5CC5)nc4n23)cn1 [Example 139, 2-(cyclopropylmethoxy)-9-(6-methoxypyridin-3-yl)-6,7-dimethylimidazo[1,5-a]pyrido[3,2-e]pyrazine] | > 100 nM |
| Cc1ccccc1-c1nc(C)c2c(C)nc3ccc(OCC4CC4)nc3n12 [Example 123, 2-(cyclopropylmethoxy)-6,7-dimethyl-9-(2-methylphenyl)imidazo[1,5-a]pyrido[3,2-e]pyrazine] | < 10 nM |
| Cc1ccncc1-c1nc(C)c2c(C)nc3ccc(=O)[nH]c3n12 [Example 159, 6,7-Dimethyl-9-(4-methylpyridin-3-yl)imidazo[1,5-a]pyrido[3,2-e]pyrazin-2(H)-one] | > 100 nM |

Target: PDE10 from pig striatum (Sus scrofa, UniProt A0A287B941)
Test: Inhibition of PDE10 from pig striatum ([3H]-cAMP SPA)
Assay type: biochemical
Conditions: Table 7; read-out: PDE10 pig IC50
Protocol: Phosphodiesterase isoenzyme 10 (PDE10) activity was determined in preparations of human recombinant PDE10A and PDE10 from pig striatum, respectively.
Striatum from male hybrid pigs (150 kg) were collected and frozen at −70° C.
At the day of preparation 0.5 g striatum was homogenised in 10 ml 50 mM Tris/Mg-buffer at 4° C. and centrifuged for one hour at 100000 g. The supernatant was removed and the pellet was resuspended in the same buffer, but containing 1% Triton and incubated for 45 min at 4° C. The membrane fraction was applied onto a 5 ml Hi Trap™ QHP column at the Akta-FPLC. After washing the column the bound PDE protein was eluted with an increasing sodium chloride gradient (O mM-500 mM sodium chloride) in 50 mM Tris/Mg-buffer at 4° C. in the presence of 1% Triton. […] The fractions with PDE10-activity were pooled and frozen in aliquots until use at −20° C.
(§1) PDE10 activity was determined in a one step procedure in microtiterplates. […] Nonspecific activity was tested without the enzyme. The reaction was initiated by addition of the substrate solution and was carried out at 37° C. for 30 minutes. Enzymatic activity was stopped by addition of 25 μl YSi-SPA-beads (Amersham-Pharmacia). One hour later the mixture was measured in a liquid scintillation counter for microtiterplates (Microbeta Trilux). To pipette the incubation mixture a robot Biomek (Fa. Beckman) is used. […] For determination of IC50 values the Hill-plot, 2-parameter-model, was used.
The phosphodiesterase isoenzyme 10 (PDE10) activity was determined in preparations of rat, pig and guinea pig striatum respectively. Striatum from male Wistar rats (180-200 g), male hybrid pigs (150 kg) and male guinea pigs (CRL (HA), 500 g) respectively were collected and frozen at −70° C.
At the day of preparation 0.5 g striatum was homogenized in 10 ml 50 mM Tris/Mg-buffer at 4° C. and centrifuged for one hour at 100000 g. The supernatant is called the cytosolic fraction and was removed and stored on ice. The pellet was resuspended in the same buffer, but containing 1% Triton and incubated for 45 min at 4° C. Both fractions were independently applied onto a 5 ml Hi Trap™ QHP column at the Akta-FPLC. After washing the columns the bound PDE protein was eluted with an increasing sodium chloride gradient (0 mM-500 mM sodium chloride) in 50 mM Tris/Mg-buffer at 4° C. for the cytosolic fraction and in the presence of 1% Triton for the membrane fraction. […] The fractions with PDE10-activity were pooled and frozen in aliquots until use at −20° C.
as §1, with “YSi-SPA beads” for “YSi-SPA-beads”

| Compound | IC50 |
| --- | --- |
| COc1ccc2nc(C)c3c(C)nc(-c4ccc(C)cc4F)n3c2n1 [Example 14, 9-(2-Fluoro-4-methylphenyl)-2-methoxy-6,7-dimethylimidazo[1,5-a]pyrido[3,2-e]pyrazine] | < 10 nM |
| COc1ccc2nc(C)c3c(C)nc(-c4ccc(F)cc4F)n3c2n1 [Example 8, 9-(2,4-Difluorophenyl)-2-methoxy-6,7-dimethylimidazo[1,5-a]pyrido[3,2-e]pyrazine] | 10 to 100 nM |
| COc1ccc(-c2nc(C)c3c(C)nc4ccc(OC)nc4n23)c(Cl)c1 [Example 18, 9-(2-Chloro-4-methoxyphenyl)-2-methoxy-6,7-dimethylimidazo[1,5-a]pyrido[3,2-e]pyrazine] | < 10 nM |
| Cc1nc(CCC(F)(F)F)n2c1c(Cl)nc1ccc(OCC(F)(F)F)nc12 [Example 1, 6-Chloro-7-methyl-2-(2,2,2-trifluoroethoxy)-9-(3,3,3-trifluoropropyl)imidazo[1,5-a]pyrido[3,2-e]pyrazine] | 10 to 100 nM |

Same assay, conditions: Table 8; read-out: PDE10 pig IC50

| Compound | IC50 |
| --- | --- |
| COc1ccc2nc(C)c3c(C)nc(-c4ccc(C(N)=O)cc4)n3c2n1 [Example 85, 4-(2-Methoxy-6,7-dimethylimidazo[1,5-a]pyrido[3,2-e]pyrazin-9-yl)benzamide] | < 10 nM |
| COc1ccc2nc(C)c3c(C)nc(-c4cscc4C)n3c2n1 [Example 69, 2-Methoxy-6,7-dimethyl-9-(4-methyl-3-thienyl)imidazo[1,5-a]pyrido[3,2-e]pyrazine] | < 10 nM |
| CNC(=O)c1ccc(F)c(-c2nc(C)c3c(C)nc4ccc(OC)nc4n23)c1 [Example 107, 4-Fluoro-3-(2-methoxy-6,7-dimethylimidazo[1,5-a]pyrido[3,2-e]pyrazin-9-yl)-N-methylbenzamide] | > 100 nM |
| CONC(=O)c1cccc(-c2nc(C)c3c(C)nc4ccc(OC)nc4n23)c1 [Example 102, N-Methoxy-3-(2-methoxy-6,7-dimethylimidazo[1,5-a]pyrido[3,2-e]pyrazin-9-yl)benzamide] | 10 to 100 nM |
| COc1ccc2nc(C)c3c(C)nc(-c4ccc(Cl)cc4OC)n3c2n1 [Example 90, 9-(4-Chloro-2-methoxyphenyl)-2-methoxy-6,7-dimethylimidazo[1,5-a]pyrido[3,2-e]pyrazine] | 10 to 100 nM |
| COc1cccc(-c2nc(C)c3c(C)nc4ccc(OC)nc4n23)c1 [Example 62, 2-Methoxy-9-(3-methoxyphenyl)-6,7-dimethylimidazo[1,5-a]pyrido[3,2-e]pyrazine] | < 10 nM |
| CNC(=O)c1cccc(-c2nc(C)c3c(C)nc4ccc(OC)nc4n23)c1 [Example 100, 3-(2-Methoxy-6,7-dimethylimidazo[1,5-a]pyrido[3,2-e]pyrazin-9-yl)-N-methylbenzamide] | > 100 nM |
| COc1ccc2nc(C)c3c(C)nc(-c4cccc(C(N)=O)c4)n3c2n1 [Example 93, 3-(2-Methoxy-6,7-dimethylimidazo[1,5-a]pyrido[3,2-e]pyrazin-9-yl)benzamide] | < 10 nM |
| COc1ccc2nc(C)c3c(C)nc(-c4ccc(-c5ccccc5)cc4)n3c2n1 [Example 72, 9-Biphenyl-4-yl-2-methoxy-6,7-dimethylimidazo[1,5-a]pyrido[3,2-e]pyrazine] | > 100 nM |
| COc1cccc(C#Cc2nc(C)c3c(C)nc4ccc(OC)nc4n23)c1 [Example 94, 2-Methoxy-9-[(3-methoxyphenyl)ethynyl]-6,7-dimethylimidazo[1,5-a]pyrido[3,2-e]pyrazine] | > 100 nM |
| COc1ccc2nc(Cl)c3c(C)nc(CCC(F)(F)F)n3c2n1 [Example 41, 6-Chloro-2-methoxy-7-methyl-9-(3,3,3-trifluoropropyl)imidazo[1,5-a]pyrido[3,2-e]pyrazine] | 10 to 100 nM |
